According to patent US9963467B2, “Boronic acid derivatives and therapeutic uses thereof” (Rempex Pharmaceuticals, Inc., priority 2014, dated 2018):

Assays:
Pa AmpC = Pa AmpC (Pseudomonas aeruginosa, UniProt P24735); experiment: Ki, nitrocefin cleavage by purified enzyme, Pa AmpC; assay type: biochemical; details: nitrocefin reporter substrate; read-out: Ki (Pa AmpC, NCF)
Outline: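 Nitrocefin hydrolysis by purified β-lactamase is followed at 490 nm every 10 sec for 10 min. Before substrate is added, enzyme sits with varying inhibitor concentrations for 10 min at room temperature. Ki comes from these cleavage profiles.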

EC1010 (CMY-6) [1] = experiment: Tigemonam potentiation (MPC@4), EC1010; assay type: cell-based; details: BLI with tigemonam at 4 μg/mL
OXA-48 = OXA-48 (Klebsiella pneumoniae, UniProt Q6XEC0); experiment: Ki, nitrocefin cleavage by purified enzyme, OXA-48; assay type: biochemical; details: nitrocefin reporter substrate; read-out: Ki (OXA-48, NCF)
Outline: (§1)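 10 min RT preincubation, enzyme with inhibitor series in reaction buffer. Substrate nitrocefin; kinetic read 490 nm, 10 sec intervals, 10 min total.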

ec308 (SHV-5) = experiment: Tigemonam potentiation (MPC@4), ec308; assay type: cell-based
CTX-M-14 = CTX-M-14 (Escherichia coli, UniProt Q9L5C7); experiment: Ki, nitrocefin cleavage by purified enzyme, CTX-M-14; assay type: biochemical; details: nitrocefin reporter substrate; read-out: Ki (CTX-M-14, NCF)
Outline: as §1

KP1005 (CTX-M-14) [2] = experiment: Tigemonam potentiation (MPC@4), KP1005; assay type: cell-based; details: BLI with tigemonam at 4 μg/mL
KP1004 (KPC-2) [3] = experiment: Aztreonam potentiation (MPC@4), KP1004; assay type: cell-based; details: BLI with aztreonam at 4 μg/mL
KP1004 (KPC-2) [4] = experiment: Biapenem potentiation (MPC@1), KP1004; details: BLI with biapenem at 1 μg/mL
KP1005 (CTX-M-14) [5] = experiment: Aztreonam potentiation (MPC@4), KP1005; assay type: cell-based; details: BLI with aztreonam at 4 μg/mL
ec302 (TEM-10) [6] = experiment: Aztreonam potentiation (MPC@4), ec302; assay type: cell-based; details: BLI with aztreonam at 4 μg/mL
KPC-2 = KPC-2 (Klebsiella pneumoniae, UniProt Q9F663); experiment: Ki, nitrocefin cleavage by purified enzyme, KPC-2; assay type: biochemical; details: nitrocefin reporter substrate; read-out: Ki (KPC-2, NCF)
Outline: as §1

KP1010 (SHV-12) = experiment: Tigemonam potentiation (MPC@4), KP1010; assay type: cell-based
[7] = Intravenous pharmacokinetics; assay type: in vivo; details: rat, plasma; rats, 20 mg/kg, intravenous infusion over 0.5 hours; read-out: Free Cl (converted)
Procedure: Rats (n=3 per compound) were administered by a single infusion. Intravenous doses were infused over 0.5 hours via an indwelling femoral vein cannula. […] (˜0.3 mL) samples were collected from each rat at designated time points up to 24 hours. Blood samples were centrifuged within 5 min of collection at 12000 g for 5 min to obtain plasma. The plasma samples were stored at −80° C. until analyzed. Data were analyzed using WinNonlin. The doses of all compounds tested were 20 mg/kg.

ECL1002 [8] = experiment: Tigemonam potentiation (MPC@4), ECL1002; assay type: cell-based; details: BLI with tigemonam at 4 μg/mL
EC1010 (CMY-6) [9] = experiment: organism not typed; assay type: cell-based
ec302 (TEM-10) [10] = experiment: Tigemonam potentiation (MPC@4), ec302; assay type: cell-based
ECL1002 [11] = experiment: Aztreonam potentiation (MPC@4), ECL1002; assay type: cell-based; details: BLI with aztreonam at 4 μg/mL
P99 = P99 (Enterobacter cloacae, UniProt P05364); experiment: Ki, nitrocefin cleavage by purified enzyme, P99; assay type: biochemical; details: nitrocefin reporter substrate; read-out: Ki (P99, NCF)
Outline: as §1

KP1086 (OXA-48) = experiment: Biapenem potentiation (MPC@1), KP1086; details: BLI with biapenem at 1 μg/mL
KP1009 (CTX-M-15) = experiment: Tigemonam potentiation (MPC@4), KP1009; assay type: cell-based; details: BLI with tigemonam at 4 μg/mL
SHV-12 = SHV-12 (Klebsiella pneumoniae, UniProt P0AD64, E235K/G234S/L31Q); experiment: Ki, nitrocefin cleavage by purified enzyme, SHV-12; assay type: biochemical; details: nitrocefin reporter substrate; read-out: Ki (SHV-12, NCF)
Outline: as §1

[12] = Monomer content of pH adjusted aqueous solutions (LC-UV); assay type: physicochemical; details: pH adjusted to 7.6 to 8, LC-UV; for % Monomer in 1 mg/mL salt solution: 1 mg/mL aqueous salt solution; for % Monomer in 10 mg/mL salt solution: 10 mg/mL aqueous salt solution; for % Monomer in 100 mg/mL salt solution: 100 mg/mL aqueous salt solution
Outline: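 Aqueous solutions at 1.00, 10.0 or 100 mg/mL (active fraction) brought to pH 7.6–8 with acid or base, compound fully dissolved. Injected within half an hour of preparation onto C18 reversed-phase LC (0.1% TFA water / 0.085% TFA methanol gradient); UV detection at 220, 254 and 300 nm.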

CTX-M-14, sequence (Q9L5C7 29-291): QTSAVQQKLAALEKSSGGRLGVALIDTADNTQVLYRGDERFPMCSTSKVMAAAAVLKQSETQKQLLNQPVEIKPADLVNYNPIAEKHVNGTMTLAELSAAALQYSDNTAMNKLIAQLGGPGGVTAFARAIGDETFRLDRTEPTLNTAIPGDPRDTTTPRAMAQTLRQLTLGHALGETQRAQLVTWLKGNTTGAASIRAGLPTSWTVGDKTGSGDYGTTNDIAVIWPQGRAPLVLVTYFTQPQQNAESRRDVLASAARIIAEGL
SHV-12, sequence (P0AD64 22-286 L31Q/G234S/E235K): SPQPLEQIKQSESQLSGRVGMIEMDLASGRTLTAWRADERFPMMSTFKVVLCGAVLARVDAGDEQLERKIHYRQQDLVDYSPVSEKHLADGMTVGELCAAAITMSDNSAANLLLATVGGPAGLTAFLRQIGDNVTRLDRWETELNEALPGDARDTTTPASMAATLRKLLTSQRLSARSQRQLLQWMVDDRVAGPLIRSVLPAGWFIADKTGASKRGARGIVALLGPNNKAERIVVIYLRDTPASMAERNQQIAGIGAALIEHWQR
P99, sequence (P05364 21-381): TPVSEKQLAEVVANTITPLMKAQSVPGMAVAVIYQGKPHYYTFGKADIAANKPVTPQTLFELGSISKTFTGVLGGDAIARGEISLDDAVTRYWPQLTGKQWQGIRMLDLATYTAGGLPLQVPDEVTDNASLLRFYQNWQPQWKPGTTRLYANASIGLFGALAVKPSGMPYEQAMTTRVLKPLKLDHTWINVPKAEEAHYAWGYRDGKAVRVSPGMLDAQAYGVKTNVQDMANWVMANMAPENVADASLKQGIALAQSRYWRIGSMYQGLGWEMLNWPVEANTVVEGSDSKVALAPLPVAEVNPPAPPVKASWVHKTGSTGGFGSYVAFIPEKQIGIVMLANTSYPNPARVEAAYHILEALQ
OXA-48, sequence (Q6XEC0 23-265, looked up, species assumed): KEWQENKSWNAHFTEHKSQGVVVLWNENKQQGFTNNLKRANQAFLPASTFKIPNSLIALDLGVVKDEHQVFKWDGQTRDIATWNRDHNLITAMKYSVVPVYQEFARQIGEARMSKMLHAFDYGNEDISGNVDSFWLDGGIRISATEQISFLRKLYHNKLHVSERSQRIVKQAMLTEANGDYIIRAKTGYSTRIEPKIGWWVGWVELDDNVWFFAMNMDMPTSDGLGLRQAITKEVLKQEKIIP
Pa AmpC, sequence (P24735 27-397): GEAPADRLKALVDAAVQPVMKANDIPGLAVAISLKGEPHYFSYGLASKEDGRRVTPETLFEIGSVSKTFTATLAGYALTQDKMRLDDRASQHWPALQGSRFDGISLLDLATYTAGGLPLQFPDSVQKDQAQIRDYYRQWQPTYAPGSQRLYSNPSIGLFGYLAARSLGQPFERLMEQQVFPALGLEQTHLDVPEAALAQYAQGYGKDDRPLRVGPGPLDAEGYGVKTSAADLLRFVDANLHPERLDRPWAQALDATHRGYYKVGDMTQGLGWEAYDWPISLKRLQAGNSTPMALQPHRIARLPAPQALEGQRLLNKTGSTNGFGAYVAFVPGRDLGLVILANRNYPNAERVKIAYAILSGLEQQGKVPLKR
KPC-2, sequence (Q9F663 25-293, looked up, species assumed): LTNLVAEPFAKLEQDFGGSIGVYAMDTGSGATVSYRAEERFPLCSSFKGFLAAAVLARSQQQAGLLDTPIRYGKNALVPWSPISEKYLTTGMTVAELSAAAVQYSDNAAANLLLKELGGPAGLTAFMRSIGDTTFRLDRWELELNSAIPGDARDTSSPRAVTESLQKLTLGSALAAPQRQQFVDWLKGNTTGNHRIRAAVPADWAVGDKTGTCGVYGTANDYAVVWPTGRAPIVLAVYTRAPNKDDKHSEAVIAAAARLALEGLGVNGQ

SMILES	Ki (Pa AmpC) [nM]	TIG MPC4 CMY-6 EC1010 (EC1010 (CMY-6) [1])	Ki (OXA-48) [nM]	TIG MPC4 SHV-5 ec308 (ec308 (SHV-5))	Ki (CTX-M-14) [nM]	TIG MPC4 CTX-M-14 KP1005 (KP1005 (CTX-M-14) [2])	AZT MPC4 KPC-2 KP1004 (KP1004 (KPC-2) [3])	BPM MPC1 KP1004 KPC-2 (KP1004 (KPC-2) [4])	AZT MPC4 TEM-10 ec302 (ec302 (TEM-10) [6])	Ki (KPC-2) [nM]	TIG MPC4 SHV-12 KP1010 (KP1010 (SHV-12))	clearance [7] [mL/min/kg]	TIG MPC4 ECL1002 (ECL1002 [8])	AZT MPC4 CMY-6 EC1010 (EC1010 (CMY-6) [9])	TIG MPC4 TEM-10 ec302 (ec302 (TEM-10) [10])	Ki (P99) [nM]	BPM MPC1 OXA-48 KP1086 (KP1086 (OXA-48))	TIG MPC4 CTX-M-15 KP1009 (KP1009 (CTX-M-15))	Ki (SHV-12) [nM]	% Monomer in 1 mg/mL salt solution [12] [%]	other results
O=C(CSC(F)F)N[C@H]1Cc2ccc(F)c(C(=O)O)c2OB1O [Compound 3, (R)-3-(2-(difluoromethylthio)acetamido)-7-fluoro-2-hydroxy-3,4-dihydro-2H-benzo[e][1,2]oxaborinine-8-carboxylic acid]	> 10	X (MIC of less than 1 μg/mL)	1 to 10	X (key: X: MIC of less than 1 μg/mL; Y: MIC of 1 μg/mL to 10 μg/mL; Z: MIC of greater than 10 μg/mL)	< 1	X (MIC of less than 1 μg/mL)	Y (MIC of 1 μg/mL to 10 μg/mL)	X (MIC of less than 1 μg/mL)	X (MIC of less than 1 ng/mL)	> 10	X (key: X: MIC of less than 1 μg/mL; Y: MIC of 1 μg/mL to 10 μg/mL; Z: MIC of greater than 10 μg/mL)	13	Y (MIC of 1 μg/mL to 10 μg/mL)	Y (key: X: MIC of less than 1 ng/mL; Y: MIC of 1 μg/mL to 10 μg/mL; Z: MIC of greater than 10 μg/mL)	Y (key: X: MIC of less than 1 ng/mL; Y: MIC of 1 μg/mL to 10 μg/mL; Z: MIC of greater than 10 μg/mL)	> 10	Z (MIC of greater than 10 μg/mL)	X (MIC of less than 1 μg/mL)	< 1	99.8	AZT MPC4 CTX-M-14 KP1005 (KP1005 (CTX-M-14) [5]): Y (MIC of 1 μg/mL to 10 μg/mL); AZT MPC4 ECL1002 (ECL1002 [11]): Y (MIC of 1 μg/mL to 10 μg/mL)
COc1ccc2c(c1C(=O)O)OB(O)[C@@H](NC(=O)Cc1cccs1)C2 [Compound 29, (R)-2-hydroxy-7-methoxy-3-(2-(thiophen-2-yl)acetamido)-3,4-dihydro-2H-benzo[e][1,2]oxaborinine-8-carboxylic acid]	1 to 10	X (MIC of less than 1 μg/mL)	< 1	X (key: X: MIC of less than 1 μg/mL; Y: MIC of 1 μg/mL to 10 μg/mL; Z: MIC of greater than 10 μg/mL)	< 1	X (MIC of less than 1 μg/mL)	Y (MIC of 1 μg/mL to 10 μg/mL)	X (MIC of less than 1 μg/mL)	X (MIC of less than 1 ng/mL)	1 to 10	X (key: X: MIC of less than 1 μg/mL; Y: MIC of 1 μg/mL to 10 μg/mL; Z: MIC of greater than 10 μg/mL)	11.2	X (MIC of less than 1 μg/mL)		Y (key: X: MIC of less than 1 ng/mL; Y: MIC of 1 μg/mL to 10 μg/mL; Z: MIC of greater than 10 μg/mL)	1 to 10	Y (MIC of 1 μg/mL to 10 μg/mL)	X (MIC of less than 1 μg/mL)	< 1	99.4	% Monomer in 10 mg/mL salt solution [12]: 98.6%; % Monomer in 100 mg/mL salt solution [12]: 67.0%
O=C(Cc1cccs1)N[C@H]1Cc2ccc(F)c(C(=O)O)c2OB1O [Compound 30, (R)-7-fluoro-2-hydroxy-3-(2-(thiophen-2-yl)acetamido)-3,4-dihydro-2H-benzo[e][1,2]oxaborinine-8-carboxylic acid]	1 to 10	X (MIC of less than 1 μg/mL)	< 1	X (key: X: MIC of less than 1 μg/mL; Y: MIC of 1 μg/mL to 10 μg/mL; Z: MIC of greater than 10 μg/mL)	< 1	Y (MIC of 1 μg/mL to 10 μg/mL)		X (MIC of less than 1 μg/mL)	Y (MIC of 1 μg/mL to 10 μg/mL)	1 to 10	X (key: X: MIC of less than 1 μg/mL; Y: MIC of 1 μg/mL to 10 μg/mL; Z: MIC of greater than 10 μg/mL)	23	X (MIC of less than 1 μg/mL)	Y (key: X: MIC of less than 1 ng/mL; Y: MIC of 1 μg/mL to 10 μg/mL; Z: MIC of greater than 10 μg/mL)	Y (key: X: MIC of less than 1 ng/mL; Y: MIC of 1 μg/mL to 10 μg/mL; Z: MIC of greater than 10 μg/mL)	1 to 10	Y (MIC of 1 μg/mL to 10 μg/mL)	X (MIC of less than 1 μg/mL)	< 1	94.6	AZT MPC4 ECL1002 (ECL1002 [11]): Y (MIC of 1 μg/mL to 10 μg/mL); % Monomer in 10 mg/mL salt solution [12]: 93.5%; % Monomer in 100 mg/mL salt solution [12]: 87.6%
